The source of these data is patent US12661410B2, “Compounds for targeted degradation of RET” (C4 Therapeutics, Inc., priority 2020, dated 2026).

Positions count from the first letter of the chain named. Like-named read-outs stand apart in the source and are kept apart here.

In one test the target is T1, RET(KD: 658-1114 G810R) (Homo sapiens, UniProt P07949, G810R).
T1 construct: 658-1114; expressed in transfected cells; host or cells: 293T.165 (293T cells, generated in-house)
T1 sequence (P07949 658-1114 G810R): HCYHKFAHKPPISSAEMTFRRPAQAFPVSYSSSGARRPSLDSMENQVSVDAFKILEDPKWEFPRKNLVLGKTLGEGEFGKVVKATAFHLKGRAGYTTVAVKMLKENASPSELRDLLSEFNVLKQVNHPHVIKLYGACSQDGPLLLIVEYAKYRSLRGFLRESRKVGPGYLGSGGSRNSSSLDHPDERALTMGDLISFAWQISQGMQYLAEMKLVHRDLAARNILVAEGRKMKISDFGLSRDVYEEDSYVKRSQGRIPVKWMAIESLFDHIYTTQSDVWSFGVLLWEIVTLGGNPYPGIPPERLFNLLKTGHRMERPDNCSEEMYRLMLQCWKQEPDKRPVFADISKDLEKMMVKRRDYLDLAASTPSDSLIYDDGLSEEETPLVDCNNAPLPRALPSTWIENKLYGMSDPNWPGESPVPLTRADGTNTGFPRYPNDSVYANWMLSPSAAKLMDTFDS
The experiment in a line: HiBiT-Degradation, RET G810R degradation assay (Nano-Glo HiBiT Lytic), 293T.165 cells. Type of test: cell-based. Particulars: for Emax / DC50: 6.0 hours; for Emax: % remaining protein, read-out: 293T.165 RET(KD: 658-1114 G810R) 6.0 hours (Emax); for DC50: read-out: 293T.165 RET(KD: 658-1114 G810R) 6.0 hours (DC50). An excerpt:
(§1) Dulbecco's modified Eagle medium (DMEM) no-phenol red media and fetal bovine serum (FBS) were purchased from Gibco (Grand Island, NY, USA). Cell lines ectopically expressing wild-type or G810R RET kinase domain fused with a HiBiT tag were generated in-house (293T. 144 and 293T. 165, respectively). Cell culture flasks and 384-well microplates were acquired from VWR (Radnor, PA, USA). The Nano-Glo® HiBiT Lytic Assay System was purchased from Promega (Madison, WI, USA).
(§2) RET wild-type (WT) and G810R degradation were assessed using the Nano-Glo® HiBiT Lytic assay (Promega, Medison, WI, USA). To determine the effect of degraders on protein levels, cells were plated in 384-well plates and treated with compounds of interest in duplicates for 6 hours using an 11-point half-log dilution series, with the highest dose set at 10 μM. Cell lysis and addition of the Nano-Glo® HiBiT Lytic Assay reagents was then performed. Luminescence signal was measured using an EnVision™ Multimode plate reader (Perkin Elmer, Santa Clara, CA, USA). The half-maximal degradation concentration (DC50) and % remaining protein (Emax) was then derived from the dose-response curves.
(In general: HiBiT is a short tag that completes a luciferase, so light tracks the accessible tagged protein.)

Another test concerns the target T2, RET (658-1114) (Homo sapiens, UniProt P07949).
T2 construct: 658-1114; expressed in transfected cells; host or cells: 293T.144 (293T cells, generated in-house)
T2 sequence (P07949 658-1114): T1 sequence (P07949 658-1114 G810R) with R153G
Kind of test: HiBiT-Degradation, RET wild-type degradation assay (Nano-Glo HiBiT Lytic), 293T.144 cells. The note with it: for DC50 / Emax: 6.0 hours; for DC50: read-out: 293T.144 RET (658-1114) 6.0 hours (DC50); for Emax: read-out: 293T.144 RET (658-1114) 6.0 hours (Emax). Type of test: cell-based.
Text: as §1, §2

Setting [1] is: half-maximal degradation concentration.

By Emax is commonly meant the greatest response seen or fitted, relative to the assay's reference. By DC50 is commonly meant the concentration giving 50% degradation. Regarding `CCC1(C(=O)NC(C)C)CCN(c2ccc(-c3nc(-c4cnn(C5CCN(C(=O)CC6(O)CCN(c7ccc(NC8CCC(=O)NC8=O)cc7Cl)CC6)CC5)c4)cn4ncc(C#N)c34)cn2)CC1` (centres unmarked) [Compound 14, 1-(5-(6-(1-(1-(2-(1-(2-Chloro-4-((2,6-dioxopiperidin-3-yl)amino)phenyl)-4-hydroxypiperidin-4-yl)acetyl)piperidin-4-yl)-1H-pyrazol-4-yl)-3-cyanopyrazolo[1,5-a]pyrazin-4-yl)pyridin-2-yl)-4-ethyl-N-isopropylpiperidine-4-carboxamide], the Emax at RET(KD: 658-1114 G810R) is less than 30%. Further, the DC50 on RET(KD: 658-1114 G810R) (setting [1]) is less than 50 nM. Further, at RET(KD: 658-1114 G810R) (HiBiT-Degradation), the “293T.165 RET(KD: 658-1114 G810R) 6.0 hours (Emax)” value is recorded as “++++ (< 30% = ++++)”, the “293T.165 RET(KD: 658-1114 G810R) 6.0 hours (IP) [nM]” value is on record as “++++ (< 50 nM = ++++)” and the DC50 was less than 50 nM. At RET (658-1114) (HiBiT-Degradation), the “293T.144 RET (658-1114) 6.0 hours (IP) [nM]” value (“293T.144 RET” for short) is “++++ (< 50 nM = ++++)”, the DC50 was less than 50 nM and the Emax was less than 30%.

For the compound `CCC1(C(=O)NC(C)C)CCN(c2ccc(-c3cc(-c4cnn(C5CCN(C(=O)CN6CCC(c7ccc(NC8CCC(=O)NC8=O)cc7F)CC6)CC5)c4)cn4ncc(C#N)c34)cc2)CC1` (centres unmarked) [Compound 58, 1-[4-[3-cyano-6-[1-[1-[2-[4-[4-[(2,6-dioxo-3-piperidyl)amino]-2-fluoro-phenyl]-1-piperidyl]acetyl]-4-piperidyl]pyrazol-4-yl]pyrazolo[1,5-a]pyridin-4-yl]phenyl]-4-ethyl-N-isopropyl-piperidine-4-carboxamide], at RET(KD: 658-1114 G810R), the Emax is less than 50%. Also, the DC50 on RET(KD: 658-1114 G810R) (setting [1]) was less than 50 nM. In addition, at RET(KD: 658-1114 G810R) (HiBiT-Degradation), the “293T.165 RET(KD: 658-1114 G810R) 6.0 hours (Emax)” value was “+++ (<50% = +++)”, the “293T.165 RET(KD: 658-1114 G810R) 6.0 hours (IP) [nM]” value is listed as “++++ (< 50 nM = ++++)” and the DC50 is less than 50 nM. Further, on RET (658-1114) (HiBiT-Degradation), the “293T.144 RET” value is listed as “++++ (< 50 nM = ++++)”, the DC50 is less than 50 nM and the Emax was less than 30%.

As to `CCC1(C(=O)NC2CCC2)CCN(c2ccc(-c3nc(-c4cnn([C@H]5CC[C@H](N6CCC(c7ccc(NC8CCC(=O)NC8=O)cc7)CC6)CC5)c4)cn4ncc(C#N)c34)cn2)CC1` (single isomer, unassigned) [Compound 126, 1-(5-(3-cyano-6-(1-((1r, 4r)-4-(4-(4-((2,6-dioxopiperidin-3-yl)amino)phenyl)piperidin-1-yl)cyclohexyl)-1H-pyrazol-4-yl)pyrazolo[1,5-a]pyrazin-4-yl)pyridin-2-yl)-N-cyclobutyl-4-ethylpiperidine-4-carboxamide], on RET(KD: 658-1114 G810R), the “293T.165 RET(KD: 658-1114 G810R) 6.0 hours (IP) [nM]” value is on record as “++++ (<50 nM = ++++)”. The Emax on RET(KD: 658-1114 G810R) and at RET (658-1114) (% remaining protein) was less than 30% throughout. For the same compound, the DC50 on RET(KD: 658-1114 G810R) (setting [1]) and at RET (658-1114) (setting [1]) was less than 50 nM in each case. The “293T.144 RET” value on RET (658-1114) was “++++ (<50 nM = ++++)”.

With `CCC1(C(=O)NC(C)C)CCN(c2ccc(-c3nc(-c4cnn(C5CCN(C(=O)CC6(O)CCN(c7cc(OC)c(NC8CCC(=O)NC8=O)cc7F)CC6)CC5)c4)cn4ncc(C#N)c34)cn2)CC1` (centres unmarked) [Compound 91, 1-[5-[3-cyano-6-[1-[1-[2-[1-[4-[(2,6-dioxo-3-piperidyl)amino]-2-fluoro-5-methoxy-phenyl]-4-hydroxy-4-piperidyl]acetyl]-4-piperidyl]pyrazol-4-yl]pyrazolo[1,5-a]pyrazin-4-yl]-2-pyridyl]-4-ethyl-N-isopropyl-piperidine-4-carboxamide], the “293T.165 RET(KD: 658-1114 G810R) 6.0 hours (IP) [nM]” value on RET(KD: 658-1114 G810R) is listed as “++++ (<50 nM = ++++)”. Besides, the Emax at RET(KD: 658-1114 G810R) and on RET (658-1114) (% remaining protein) was less than 30% throughout. The DC50 at RET(KD: 658-1114 G810R) (setting [1]) and at RET (658-1114) (setting [1]) was less than 50 nM throughout. The “293T.144 RET” value at RET (658-1114) is “++++ (<50 nM = ++++)”.

Turning to `N#Cc1cnn2cc(-c3ccc(N4CCN(C(=O)CN5CCC(c6ccc(NC7CCC(=O)NC7=O)cc6)CC5)CC4)cc3)cc(-c3ccc(C4(CO)CCCCC4)nc3)c12` (centres unmarked) [Compound 21, 6-(4-(4-(2-(4-(4-((2,6-Dioxopiperidin-3-yl)amino)phenyl)piperidin-1-yl)acetyl)piperazin-1-yl)phenyl)-4-(6-(1-(hydroxymethyl)cyclohexyl)pyridin-3-yl)pyrazolo[1,5-a]pyridine-3-carbonitrile], at RET(KD: 658-1114 G810R), the Emax is less than 50%. Further, the DC50 at RET(KD: 658-1114 G810R) (setting [1]) is less than 1000 nM.

For the compound `CC(C)NC(=O)C1(C)CCN(c2ccc(-c3cc(-c4ccc(N5CCN(C(=O)CC6(O)CCN(c7ccc(CN8CCC(=O)NC8=O)cc7)CC6)CC5)cc4)cn4ncc(C#N)c34)cn2)CC1` [Compound 33, 1-[5-[3-cyano-6-[4-[4-[2-[1-[4-[(2,4-dioxohexahydropyrimidin-1-yl)methyl]phenyl]-4-hydroxy-4-piperidyl]acetyl]piperazin-1-yl]phenyl]pyrazolo[1,5-a]pyridin-4-yl]-2-pyridyl]-N-isopropyl-4-methyl-piperidine-4-carboxamide], the Emax on RET(KD: 658-1114 G810R) was less than 70%. For the same compound, the DC50 on RET(KD: 658-1114 G810R) (setting [1]) was more than 1000 nM.

`CCC1(C(=O)N[C@H](C)C(F)(F)F)CCN(c2ccc(-c3cc(-c4cnn(C5CCN(C(=O)CN6CCC(c7ccc(NC8CCC(=O)NC8=O)cc7F)CC6)CC5)c4)cn4ncc(C#N)c34)cn2)CC1` (stereo partly drawn) [Compound 7, 1-[5-[3-cyano-6-[1-[1-[2-[4-[4-[(2,6-dioxo-3-piperidyl)amino]-2-fluoro-phenyl]-1-piperidyl]acetyl]-4-piperidyl]pyrazol-4-yl]pyrazolo[1,5-a]pyridin-4-yl]-2-pyridyl]-4-ethyl-N-[(1R)-2,2,2-trifluoro-1-methyl-ethyl]piperidine-4-carboxamide]: the Emax at RET(KD: 658-1114 G810R) is less than 50%. Moreover, on RET(KD: 658-1114 G810R) (setting [1]), the DC50 was less than 1000 nM.

`CCC1(C(=O)NC(C)C)CCN(c2ccc(-c3cc(-c4cnc(N5CCN(C(=O)CN6CCC(c7ccc(NC8CCC(=O)NC8=O)cc7F)CC6)CC5)nc4)cn4ncc(C#N)c34)cn2)CC1` (centres unmarked) [Compound 37, 1-(5-(3-Cyano-6-(2-(4-(2-(4-(4-((2,6-dioxopiperidin-3-yl)amino)-2-fluorophenyl)piperidin-1-yl)acetyl)piperazin-1-yl)pyrimidin-5-yl)pyrazolo[1,5-a]pyridin-4-yl)pyridin-2-yl)-4-ethyl-N-isopropylpiperidine-4-carboxamide]: the Emax at RET(KD: 658-1114 G810R) is less than 50%. Moreover, at RET(KD: 658-1114 G810R) (setting [1]), the DC50 was less than 1000 nM.

As to `CCC1(C(=O)NC(C)C)CCN(c2ccc(-c3cc(-c4ccc(N5CCN(C(=O)CN6CCC(c7ccc(C8CCC(=O)NC8=O)cc7)CC6)CC5)cc4)cn4ncc(C#N)c34)cn2)CC1` (centres unmarked) [Compound 29, 1-(5-(3-Cyano-6-(4-(4-(2-(4-(4-(2,6-dioxopiperidin-3-yl)phenyl)piperidin-1-yl)acetyl)piperazin-1-yl)phenyl)pyrazolo[1,5-a]pyridin-4-yl)pyridin-2-yl)-4-ethyl-N-isopropylpiperidine-4-carboxamide], the Emax at RET(KD: 658-1114 G810R) was less than 50%. The DC50 on RET(KD: 658-1114 G810R) (setting [1]) was less than 1000 nM.
